Measured values published in PubChem BioAssay (NCI).
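Growth conditions: 96-well plates. Treatment: test compound, 48 hours, 5 concentrations. Analysis: linear interpolation between bracketing concentrations; unreached endpoints set to highest concentration. TGI marks complete inhibition of growth.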

What was measured:
Test in all cases: growth of human tumour cells (NCI), 48 h
T-47D breast = test system: T-47D breast
HT29 colon = test system: HT29 colon
MDA-N = test system: MDA-N
NCI/ADR-RES ovarian = test system: NCI/ADR-RES ovarian
MOLT-4 leukemia = test system: MOLT-4 leukemia
UO-31 renal = test system: UO-31 renal
RXF 393 renal = test system: RXF 393 renal
OVCAR-3 ovarian = test system: OVCAR-3 ovarian
SNB-75 CNS = test system: SNB-75 CNS
K-562 leukemia = test system: K-562 leukemia
MALME-3M melanoma = test system: MALME-3M melanoma
MDA-MB-435 = test system: MDA-MB-435
OVCAR-8 ovarian = test system: OVCAR-8 ovarian
SNB-19 CNS = test system: SNB-19 CNS
SK-MEL-28 melanoma = test system: SK-MEL-28 melanoma
SF-268 CNS = test system: SF-268 CNS
EKVX NSCLC = test system: EKVX NSCLC
HCT-15 colon = test system: HCT-15 colon
786-0 renal = test system: 786-0 renal
SK-MEL-5 melanoma = test system: SK-MEL-5 melanoma
MCF7 breast = test system: MCF7 breast
SF-539 CNS = test system: SF-539 CNS
A549 NSCLC = test system: A549 NSCLC
HCT-116 colon = test system: HCT-116 colon
SR leukemia = test system: SR leukemia
CCRF-CEM leukemia = test system: CCRF-CEM leukemia
HCC-2998 colon = test system: HCC-2998 colon
NCI-H23 lung = test system: NCI-H23 lung
A498 renal = test system: A498 renal
RPMI-8226 leukemia = test system: RPMI-8226 leukemia
NCI-H226 lung = test system: NCI-H226 lung
HOP-92 NSCLC = test system: HOP-92 NSCLC
MDA-MB-231 breast = test system: MDA-MB-231 breast
TK-10 renal = test system: TK-10 renal
LOX IMVI melanoma = test system: LOX IMVI melanoma
HL-60(TB) leukemia = test system: HL-60(TB) leukemia
UACC-62 melanoma = test system: UACC-62 melanoma
SK-MEL-2 melanoma = test system: SK-MEL-2 melanoma
HS 578T breast = test system: HS 578T breast
SF-295 CNS = test system: SF-295 CNS
IGROV1 ovarian = test system: IGROV1 ovarian
NCI-H460 lung = test system: NCI-H460 lung
OVCAR-5 ovarian = test system: OVCAR-5 ovarian
M14 melanoma = test system: M14 melanoma
PC-3 prostate = test system: PC-3 prostate
SW-620 colon = test system: SW-620 colon
CAKI-1 renal = test system: CAKI-1 renal
OVCAR-4 ovarian = test system: OVCAR-4 ovarian
U251 CNS = test system: U251 CNS
ACHN renal = test system: ACHN renal
DU-145 prostate = test system: DU-145 prostate
KM12 colon = test system: KM12 colon
UACC-257 melanoma = test system: UACC-257 melanoma
COLO 205 colon = test system: COLO 205 colon
BT-549 breast = test system: BT-549 breast
SK-OV-3 ovarian = test system: SK-OV-3 ovarian

Measured: TGI

O=C1Nc2ccccc2NC1C1OC(c2ccccc2)=CC1=O (stereo unspecified)
> 100 µM: all assays above
